Source: patent publication EP1724268A1, “COMPOUND HAVING TGF-BETA INHIBITORY ACTIVITY AND PHARMACEUTICAL COMPOSITION CONTAINING SAME” (KIRIN BEER KABUSHIKI KAISHA, priority 2004, dated 2005)
Like-named read-outs stand apart in the source and are kept apart here.

Test system: TGFβ signal
Test: TGFβ signal inhibitory activity, (SBE)4-Luc reporter in A549 cells (Test Examples 1A and 1B)
Type: cell-based, human
Settings: Homo sapiens, A549, read-out: TGFβ inhibition rate, %
Protocol: Test Example 1A: TGFβ signal inhibitory activity (in vitro test) The compounds according to the present invention was evaluated for TGFβ signal inhibitory activity according to the method described in J. Boil .Chem., 273, 21145-21152 (1998). Specifically, a plasmid having four tandem binding sequences of Smad3, a TGF-beta signal transducer, to the upstream of a luciferases gene were used as a reporter plasmid ((SBE)4-Luc) to detect TGF-beta signal, This reporter gene was introduced into human pulmonary carcinoma epithelial cells (A549) (available from ATCC) to establish a stable cell line. A test compound and TGFβ-1 (2 ng/ ml) were added to the cells, and the mixture was cultured for 4 hr. In this case, the compounds according to the present invention synthesized in the Examples were used as the test compound. After the culture, the luciferase activity of the cells were measured by chemiluminescence (Steady Glo (trademark) luciferase assay system, available from Promega). Likewise, the luciferase activity was measured as a control against the culture of cells with the addition of TGFβ only and the culture of cells without the addition of both TGFβ and the test compound.
The TGFβ inhibition (%) was calculated by the following equation, based on the measurement results. TGFβ inhibition(%) = (A-B)/(A-C) × 100 [formula] wherein • A: luciferase activity with the addition of TGFβ1 and without the addition of test compound (relative luciferase unit), • B: luciferase activity with the addition of both TGFβ1 and test compound (relative luciferase unit), and • C: luciferase activity without the addition of both TGFβ1 and test compound (relative luciferase unit).
The test was carried out for each of test compound at the concentrations of 3 µM and 10 µM. For certain test compounds, the test was further carried out for test compound at the concentration of 1 µM.
For the compounds of Reference Examples, the TGFβ signal inhibitory activity was evaluated in the same manner as in Test Example 1A.

[1] = test compound 3 µM, TGFβ-1 2 ng/ml, 4 hr, Table 1A
[2] = test compound 10 µM, TGFβ-1 2 ng/ml, 4 hr, Table 1A
[3] = test compound 3 µM, Reference Examples, Table 1B
[4] = test compound 10 µM, Reference Examples, Table 1B
[5] = 3 µM, compounds of Reference Examples (Test Example 1B)
[6] = 10 µM, compounds of Reference Examples (Test Example 1B)

Row | SMILES | inhibition at 3 µM [5] | inhibition at 10 µM [6] | also measured
1 | Clc1ccc2nccc(Oc3cc4cccnc4nc3-c3ccccc3)c2c1Cl [Compound 57, 3-(5,6-Dichloro-quinolin-4-yloxy)-2-phenyl-[1,8]naphthyridine] | – | – | inhibition at 3 µM [1]: 75%; inhibition at 10 µM [2]: 100%
2 | COc1cc2c(Oc3ccc(C)cc3C(=O)c3ccccc3)ccnc2cc1OCCN1CCC(N2CCCC2)CC1 [Compound r127] | – | – | inhibition at 3 µM [3]: 99%; inhibition at 10 µM [4]: 100%
3 | COc1cc2c(Oc3cc4ccccc4nc3C)ccnc2cc1OCCNC(=O)CC(C)(C)CC(=O)O [Compound r357] | 27% | 60% | –
4 | COc1cc2nccc(Oc3cc4ccccc4nc3CCC(C)C)c2cc1OC [r439] | 43% | 95% | –
5 | COc1ccc(Oc2ccnc3cc(OC)c(OC)cc23)c(C(=O)c2ccccc2)c1 [r74] | – | – | inhibition at 3 µM [3]: 27%; inhibition at 10 µM [4]: 84%
6 | COc1cc2nccc(Oc3cc4ccccc4nc3-c3ccccn3)c2cc1OC [r287] | 100% | 100% | –
7 | COc1cc2c(Oc3cc(C)c(C)nc3-c3ccccc3)ccnc2cc1OCCO [Compound r333] | 100% | – | –
8 | COc1cc2nccc(Oc3ccc(C)nc3-c3cc(C)n(C)n3)c2cc1OC [Compound r256, 4-[2-(1,5-Dimethyl-1H-pyrazol-3-yl)-6-methyl-pyridin-3-yloxy]-6,7-dimethoxy-quinoline] | 98% | 100% | –
9 | COc1cc2nccc(Oc3cc4c(cc3C(C)=O)CCC4)c2cc1OC [r182] | 57% | 96% | –
10 | COc1cc2nccc(Oc3ccc(C)nc3-c3cc(C)nn3C)c2cc1OC [Compound r257] | 15% | 62% | –
11 | CO/N=C(\C)c1cc(C)c(C)cc1Oc1ccnc2cc(OC)c(OC)cc12 [r196] | 41% | 83% | –
12 | Cc1ccc(-c2nc(C)c(C)cc2Oc2ncnc3ccccc23)nc1 [Compound 38, 4-(5,6,5'-Trimethyl-[2,2']bipyridin-3-yloxy)-quinazoline] | – | – | inhibition at 3 µM [1]: 45%; inhibition at 10 µM [2]: 89%
13 | Cc1cc(Oc2ccnc3ccc(-c4ncccn4)cc23)c(-c2ccccn2)nc1C [Compound 175, 5,6-Dimethyl-3-(6-pyrimidin-2-yl-quinolin-4-yloxy)-[2,2']bipyridine] | – | – | inhibition at 3 µM [1]: 97%; inhibition at 10 µM [2]: 100%
14 | COc1cc2c(Oc3ccc(C)cc3C(=O)c3ccccc3)ccnc2cc1OCC(O)CN1CCOCC1 (stereo not drawn) [Compound r159] | – | – | inhibition at 3 µM [3]: 98%; inhibition at 10 µM [4]: 100%
15 | Cc1cc(Oc2ccnc3cccnc23)c(-c2ccccn2)nc1C [Compound 30, 4-(5,6-Dimethyl-[2,2']bipyridin-3-yloxy)-[1,5]naphthyridine] | – | – | inhibition at 3 µM [1]: 84%; inhibition at 10 µM [2]: 99%
16 | COc1cc2c(Oc3cc4ccccc4nc3C)ccnc2cc1CCCN1CCOCC1 [Compound r412] | 77% | 99% | –
17 | COc1cc2c(Oc3ccc(C)cc3C(=O)c3ccccc3)ccnc2cc1OCC(O)CN1CCC(N2CCCC2)CC1 (stereo not drawn) [r155] | – | – | inhibition at 3 µM [3]: 100%; inhibition at 10 µM [4]: 100%
18 | COc1cc2nccc(Oc3cc(C)c(C)nc3-c3ccccn3)c2cc1O [Compound 141, 4-(5,6-Dimethyl-[2,2']bipyridinyl-3-yloxy)-7-methoxy-quinolin-6-ol] | – | – | inhibition at 3 µM [1]: 100%; inhibition at 10 µM [2]: 100%
19 | COc1cc2c(Oc3cc(C)c(C)nc3-c3cccc(C)n3)ccnc2cc1OCC(O)CO (stereo not drawn) [Compound r449] | 74% | 98% | –
20 | COc1cc2nccc(Oc3ccc4ncccc4c3Cl)c2cc1OC [r298] | 30% | 75% | –
21 | COc1cc2c(Oc3cc4ccccc4nc3C)ccnc2cc1OCCN1C(=O)c2ccccc2C1=O [Compound r367] | 95% | 98% | –
22 | COc1cc2c(Oc3cc4ccccc4nc3C)ccnc2cc1OCCN1CCCCC1 [Compound r358] | 100% | 100% | –
23 | COc1ccc(Oc2ccnc3cc(OC)c(OC)cc23)c(C(=O)c2nccs2)c1 [r192] | 79% | 99% | –
